What all share (type): functional, cell-based
Assay [1] relates to DLD-1. Put plainly: Growth inhibition of human DLD1 cells.
Assay [2] relates to DLD-1. Put plainly: Induction of apoptosis in human DLD1 cells assessed as activation of bcl2 at 20 uM by Western blot. A general note: In western blotting, separated proteins are transferred to a membrane and probed.
In assay [3] the test system is DLD-1. Put plainly: Cytotoxicity against human DLD1 cells after 24 hrs by Trypan blue exclusion test. As to conditions: DLD-1, 24 h.
For assay [4], the system named is DLD-1. Put plainly: Cytotoxicity against human DLD1 cells at 2 uM after 24 hrs by Trypan blue exclusion test.
In assay [5] the test system is DLD-1. Put plainly: Induction of apoptosis in human DLD1 cells assessed as activation of caspase-3 at 20 uM by Western blot.
For assay [6], the system named is DLD-1. Put plainly: Induction of apoptosis in human DLD1 cells assessed as release of endonuclease-G after 6 hrs by Western blot.
For assay [7], the system named is DLD-1. Put plainly: Cytotoxicity against human DLD1 cells assessed as decrease in cell number at 20 uM after 24 hrs by Trypan blue exclusion test.
Assay [8] concerns DLD-1. Put plainly: Reduction in cMyc level in human DLD1 cells by Western blot.
For assay [9], the system named is DLD-1. Put plainly: Induction of apoptosis in human DLD1 cells assessed as activation of bax protein at 20 uM by Western blot.
Assay [10] concerns DLD-1. Put plainly: Induction of apoptosis in human DLD1 cells assessed as release of apoptosis-inducing factor at 20 uM after 6 to 24 hrs by Western blot.
The test system of assay [11] is DLD-1. Put plainly: Decrease in Erk5 expression levels in human DLD1 cells by Western blot.
In assay [12] the test system is DLD-1. Put plainly: Increase in p-p38 levels in human DLD1 cells after 1 to 3 hrs by Western blot.
The test system of assay [13] is DLD-1. Put plainly: Apoptotic activity in human DLD1 cells at 15 uM after 24 hrs by Trypan blue exclusion test.
The test system of assay [14] is DLD-1. Put plainly: Induction of apoptosis in human DLD1 cells assessed as activation of pan-caspase at 20 uM by Western blot.
Assay [15] concerns DLD-1. Put plainly: Effect on ERK5 mRNA expression levels in human DLD1 cells by semi-qRT PCR.
For assay [16], the system named is DLD-1. Put plainly: Induction of apoptosis in human DLD1 cells assessed as release of endonuclease-G at 20 uM after 6 to 24 hrs by Western blot.

pIC50: −log10 of the molar value. The source made the active and inactive calls. The calls are words filed in the database; no cut-off is given here.

For `O=c1[nH]cc(F)c(=O)[nH]1` [FLUOROURACIL], the pIC50 (in general, −log10 of the IC50, conventionally taken in molar units) in assay [1] is 5.35.

In the case of `COc1c(O)cc2oc3cc(O)c(CC=C(C)C)c(O)c3c(=O)c2c1CC=C(C)C` [MANGOSTIN], the result in assay [2], in assay [5], in assay [9], in [10], in assay [14] and in [15] was inactive. This molecule gave a pIC50 in assay [3] of 5.12. The result in [4], in [7], in [8], in assay [11], in assay [12] and in assay [13] was Active. The outcome in assay [16] was Active. Further, the Activity result in assay [6] is “Dose-dependent effect”.
